Results reported in US12473304B2, “Heterocyclic PAD4 inhibitors” (BRISTOL-MYERS SQUIBB COMPANY, priority 2020, dated 2025).

biological target: human PAD4 (hPAD4) (Homo sapiens (Human), UniProt Q9UM07); assay: RFMS Human PAD4 Functional Assay 1; assay type: biochemical; conditions: RFMS assay 1; 5 nM hPAD4, 250 μM BAEE substrate, 50 μM calcium, 37° C.
How it was run: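 Citrullination product read by RapidFire triple-quad MRM against a modified-citrulline internal standard, after TCA stop and 30 min phenyl glyoxal step at 37 °C. Reaction: 250 μM BAEE, 5 nM human PAD4, 90 min at 37 °C, pH 7.5 HEPES buffer with 50 μM calcium and 5 μM TPEN, following 30 min compound–enzyme preincubation (max 50 μM).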

Chain of human PAD4 (hPAD4) (Q9UM07 whole entry): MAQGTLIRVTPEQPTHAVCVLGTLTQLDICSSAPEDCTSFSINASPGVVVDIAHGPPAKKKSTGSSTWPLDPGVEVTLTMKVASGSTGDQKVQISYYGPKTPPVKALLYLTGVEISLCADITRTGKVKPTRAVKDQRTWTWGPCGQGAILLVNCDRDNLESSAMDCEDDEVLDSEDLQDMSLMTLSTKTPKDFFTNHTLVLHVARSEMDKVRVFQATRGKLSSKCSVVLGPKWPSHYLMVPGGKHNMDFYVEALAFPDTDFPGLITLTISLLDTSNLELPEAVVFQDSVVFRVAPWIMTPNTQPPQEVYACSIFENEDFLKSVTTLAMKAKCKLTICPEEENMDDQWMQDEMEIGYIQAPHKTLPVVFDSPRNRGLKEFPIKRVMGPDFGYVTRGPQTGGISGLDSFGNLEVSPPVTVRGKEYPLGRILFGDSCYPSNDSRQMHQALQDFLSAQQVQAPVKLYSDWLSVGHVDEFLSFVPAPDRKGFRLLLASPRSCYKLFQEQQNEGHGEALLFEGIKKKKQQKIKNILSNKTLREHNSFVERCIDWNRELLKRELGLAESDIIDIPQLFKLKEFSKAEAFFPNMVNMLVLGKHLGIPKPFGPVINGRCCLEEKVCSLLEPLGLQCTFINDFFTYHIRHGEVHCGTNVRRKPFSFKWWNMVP

IC50 [nM] | Compound
60 | COCC(=O)N1CCC(c2cc(F)cc3cc(-c4nn5cc(C(=O)N6C[C@H](N)C[C@@H](F)C6)ccc5c4C)n(CC4CC4)c23)CC1 [Example 503, 1-(4-(2-(6-((3R,5R)-3-Amino-5-fluoropiperidine-1-carbonyl)-3-methylpyrazolo[1,5-a]pyridin-2-yl)-1-(cyclopropylmethyl)-5-fluoro-1H-indol-7-yl)piperidin-1-yl)-2-methoxyethan-1-one]
110 | Cc1c(-c2cc3cc(F)cc(C4CCN(C(=O)C5CC(O)(C(F)(F)F)C5)CC4)c3n2CC2CC2)nn2cc(C(=O)N3CCC[C@@H](N)C3)ccc12 (stereo partly drawn) [Example 504, (R)-(3-Aminopiperidin-1-yl)(2-(1-(cyclopropylmethyl)-5-fluoro-7-(1-(3-hydroxy-3-(trifluoromethyl)cyclobutane-1-carbonyl)piperidin-4-yl)-1H-indol-2-yl)-3-methylpyrazolo[1,5-a]pyridin-6-yl)methanone]
70 | CC(=O)N1CCC(c2cc(F)cc3cc(-c4nn5cc(C(=O)N6CCC[C@@H](N)C6)ccc5c4C)n(CC4CC4)c23)CC1 [Example 506, (R)-1-(4-(2-(6-(3-Aminopiperidine-1-carbonyl)-3-methylpyrazolo[1,5-a]pyridin-2-yl)-1-(cylcopropylmethyl)-5-fluoro-1H-indol-7-yl)piperidin-1-yl)ethan-1-one]
170 | CC(=O)N1CCC(c2cc(F)cc3cc(-c4nn5cc(C(=O)N6C[C@H](N)C[C@@H](F)C6)ccc5c4C)n(CC4CC4)c23)CC1 [Example 507, 1-(4-(2-(6-((3R,5R)-3-Amino-5-fluoropiperidine-1-carbonyl)-3-methylpyrazolo[1,5-a]pyridin-2-yl)-1-(cyclopropylmethyl)-5-fluoro-1H-indol-7-yl)piperidin-1-yl)ethan-1-one]
10 | COCC(=O)N1CCC(c2nccc3cc(-c4nn5cc(C(=O)N6C[C@H](N)C[C@@H](F)C6)cc(OC)c5c4C)n(CC4CC4)c23)CC1 [Example 511, 1-(4-(2-(6-((3R,5R)-3-Amino-5-fluoropiperidine-1-carbonyl)-4-methoxy-3-methylpyrazolo[1,5-a]pyridin-2-yl)-1-(cyclopropylmethyl)-1H-pyrrolo[2,3-c]pyridin-7-yl)piperidin-1-yl)-2-methoxyethan-1-one]
60 | COc1cc(C(=O)N2C[C@H](N)C[C@@H](F)C2)cn2nc(-c3cc4cccc(C5CN(C(=O)[C@H]6CC[C@H](O)CC6)C5)c4n3CC3CC3)c(C)c12 [Example 514, ((3R,5R)-3-Amino-5-fluoropiperidin-1-yl)(2-(1-(cyclopropylmethyl)-7-(1-((1R,4R)-4-hydroxycyclohexane-1-carbonyl)azetidin-3-yl)-1H-indol-2-yl)-4-methoxy-3-methylpyrazolo[1,5-a]pyridin-6-yl)methanone]
1040 | COc1cc(C(=O)N2CCC[C@@H](N)C2)cn2nc(-c3cc4cccc(C5CN(C(=O)C(C)(C)OC)C5)c4n3CC3CC3)c(C)c12 [Example 516, (R)-1-(3-(2-(6-(3-Aminopiperidine-1-carbonyl)-4-methoxy-3-methylpyrazolo[1,5-a]pyridin-2-yl)-1-(cyclopropylmethyl)-1H-indol-7-yl)azetidin-1-yl)-2-methoxy-2-methylpropan-1-one]
60 | COc1cc(C(=O)N2CCC[C@@H](N)C2)cn2nc(-c3cc4cccc(C5CN(C(=O)[C@H]6CC[C@H](O)CC6)C5)c4n3CC3CC3)c(C)c12 [Example 517, ((R)-3-Aminopiperidin-1-yl)(2-(1-(cyclopropylmethyl)-7-(1-((1r,4r)-4-hydroxycyclohexane-1-carbonyl)azetidin-3-yl)-1H-indol-2-yl)-4-methoxy-3-methylpyrazolo[1,5-a]pyridin-6-yl)methanone]
260 | COc1cc(C(=O)N2C[C@H](N)C[C@@H](F)C2)cn2nc(-c3cc4cccc(C5CN(C(=O)C(C)(C)OC)C5)c4n3CC3CC3)c(C)c12 [Example 518, 1-(3-(2-(6-((3R,5R)-3-Amino-5-fluoropiperidine-1-carbonyl)-4-methoxy-3-methylpyrazolo[1,5-a]pyridin-2-yl)-1-(cyclopropylmethyl)-1H-indol-7-yl)azetidin-1-yl)-2-methoxy-2-methylpropan-1-one]
40 | COc1cc(C(=O)N2C[C@H](N)C[C@@H](F)C2)cn2nc(-c3cc4cccc(C5CN(C(=O)[C@H]6CC[C@@H](O)CC6)C5)c4n3CC3CC3)c(C)c12 [Example 519, ((3R,5R)-3-Amino-5-fluoropiperidin-1-yl)(2-(1-(cyclopropylmethyl)-7-(1-((1s,4s)-4-hydroxycyclohexane-1-carbonyl)azetidin-3-yl)-1H-indol-2-yl)-4-methoxy-3-methylpyrazolo[1,5-a]pyridin-6-yl)methanone]
220 | COc1cc(C(=O)N2CCC[C@@H](N)C2)cn2nc(-c3cc4cccc(C5CN(C(=O)[C@H]6CC[C@@H](O)CC6)C5)c4n3CC3CC3)c(C)c12 [Example 520, ((R)-3-Aminopiperidin-1-yl)(2-(1-(cyclopropylmethyl)-7-(1-((1s,4s)-4-hydroxycyclohexane-1-carbonyl)azetidin-3-yl)-1H-indol-2-yl)-4-methoxy-3-methylpyrazolo[1,5-a]pyridin-6-yl)methanone]
400 | COc1cc(C(=O)N2CCC[C@@H](N)C2)cn2nc(-c3cc4cccc(C5CN(C(=O)[C@H](C)OC)C5)c4n3CC3CC3)c(C)c12 [Example 523, (S)-1-(3-(2-(6-((R)-3-Aminopiperidine-1-carbonyl)-4-methoxy-3-methylpyrazolo[1,5-a]pyridin-2-yl)-1-(cyclopropylmethyl)-1H-indol-7-yl)azetidin-1-yl)-2-methoxypropan-1-one]
280 | COc1cc(C(=O)N2C[C@H](N)C[C@@H](F)C2)cn2nc(-c3cc4cccc(C5CN(C(=O)[C@H](C)OC)C5)c4n3CC3CC3)c(C)c12 [Example 524, (S)-1-(3-(2-(6-((3R,5R)-3-Amino-5-fluoropiperidine-1-carbonyl)-4-methoxy-3-methylpyrazolo[1,5-a]pyridin-2-yl)-1-(cyclopropylmethyl)-1H-indol-7-yl)azetidin-1-yl)-2-methoxypropan-1-one]
90 | COc1cc(C(=O)N2CCC[C@@H](N)C2)cn2nc(-c3cc4cccc(C5CN(C(=O)[C@@H](C)OC)C5)c4n3CC3CC3)c(C)c12 [Example 525, (R)-1-(3-(2-(6-((R)-3-Aminopiperidine-1-carbonyl)-4-methoxy-3-methylpyrazolo[1,5-a]pyridin-2-yl)-1-(cyclopropylmethyl)-1H-indol-7-yl)azetidin-1-yl)-2-methoxypropan-1-one]
260 | COc1cc(C(=O)N2C[C@H](N)C[C@@H](F)C2)cn2nc(-c3cc4cccc(C5CN(C(=O)[C@@H](C)OC)C5)c4n3CC3CC3)c(C)c12 [Example 526, (R)-1-(3-(2-(6-((3R,5R)-3-Amino-5-fluoropiperidine-1-carbonyl)-4-methoxy-3-methylpyrazolo[1,5-a]pyridin-2-yl)-1-(cyclopropylmethyl)-1H-indol-7-yl)azetidin-1-yl)-2-methoxypropan-1-one]
50 | COCC(=O)N1CC(c2cccc3cc(-c4nn5cc(C(=O)N6C[C@H](N)C[C@@H](F)C6)cc(OC)c5c4C)n(CC4CC4)c23)C1 [Example 527, 1-(3-(2-(6-((3R,5R)-3-Amino-5-fluoropiperidine-1-carbonyl)-4-methoxy-3-methylpyrazolo[1,5-a]pyridin-2-yl)-1-(cyclopropylmethyl)-1H-indol-7-yl)azetidin-1-yl)-2-methoxyethan-1-one]
15000 | COCC(=O)N1CC(c2cccc3cc(-c4nn5cc(C(=O)N6CCC[C@@H](N)C6)cc(OC)c5c4C)n(CC4CC4)c23)C1 [Example 528, (R)-1-(3-(2-(6-(3-Aminopiperidine-1-carbonyl)-4-methoxy-3-methylpyrazolo[1,5-a]pyridin-2-yl)-1-(cyclopropylmethyl)-1H-indol-7-yl)azetidin-1-yl)-2-methoxyethan-1-one]
1530 | COCC(=O)N1CC(c2cccc3cc(-c4nn5cc(C(=O)N6CCC[C@@H](N)C6)cc(OC)c5c4C)n(CC4CC4)c23)C1 [Example 529, (R)-1-(3-(2-(6-(3-Aminopiperidine-1-carbonyl)-4-methoxy-3-methylpyrazolo[1,5-a]pyridin-2-yl)-1-(cyclopropylmethyl)-1H-indol-7-yl)azetidin-1-yl)-2-methoxyethan-1-one]
30 | Cc1c(-c2cc3cccc(C4CN(C(=O)[C@H]5CC[C@H](O)CC5)C4)c3n2CC2CC2)nn2cc(C(=O)N3CCC[C@@H](N)C3)ccc12 [Example 530, ((R)-3-Aminopiperidin-1-yl)(2-(1-(cyclopropylmethyl)-7-(1-((1r,4r)-4-hydroxycyclohexane-1-carbonyl)azetidin-3-yl)-1H-indol-2-yl)-3-methylpyrazolo[1,5-a]pyridin-6-yl)methanone]
580 | Cc1c(-c2cc3cccc(C4CN(C(=O)[C@@H]5CCC[C@H](O)C5)C4)c3n2CC2CC2)nn2cc(C(=O)N3C[C@H](N)C[C@@H](F)C3)ccc12 [Example 531, ((3R,5R)-3-Amino-5-fluoropiperidin-1-yl)(2-(1-(cyclopropylmethyl)-7-(1-((1R,3S)-3-hydroxycyclohexane-1-carbonyl)azetidin-3-yl)-1H-indol-2-yl)-3-methylpyrazolo[1,5-a]pyridin-6-yl)methanone]
1010 | Cc1c(-c2cc3cccc(C4CN(C(=O)[C@@H]5CCC[C@H](O)C5)C4)c3n2CC2CC2)nn2cc(C(=O)N3CCC[C@@H](N)C3)ccc12 [Example 532, ((R)-3-Aminopiperidin-1-yl)(2-(1-(cyclopropylmethyl)-7-(1-((1R,3S)-3-hydroxycyclohexane-1-carbonyl)azetidin-3-yl)-1H-indol-2-yl)-3-methylpyrazolo[1,5-a]pyridin-6-yl)methanone]
